Laboratory results published in patent US7244756B2, “Benzimidazol-2-one derivatives and their use” (Poseidon Pharmaceuticals A/S, priority 2002, dated 2007).
Like-named read-outs stand apart in the source and are kept apart here.

What was measured:
[1] = Pharmacokinetic parameters in rats (i.v. and p.o. dosing, plasma LC-MS/MS); format: in vivo, male Wistar rats; details: rat; for half-life / Cmax / Tmax / bioavailability / Vd: male, Wistar, plasma
Experimental: In this example the pharmacokinetic parameters of Compound 1 of the invention are compared to those of a close analogue of the prior art, i.e. 1,3-dihydro-1-[2-hydroxy-5-(trifluoromethyl)phenyl]-5-(trifluoromethyl)-2H-Benzimidazol-2-one (i.e. NS1619 described WO 01/54711) herein designated the Reference Compound.
The blood samples were centrifuged at 1.300 g at 4° C. for 25 minutes and the resulting plasma samples were stored at <−15° C. pending analysis.
The compounds were dosed as clear solutions in phosphate buffer/Tween 80 (90:10) in a concentration of 3 mg/ml.
Aliquots of samples, calibrants and QC's (100 μl) were pipetted into 1.5 ml eppendorf tubes. To each tube (except matrix blank) was added 300 μl acetonitrile with internal standards. Matrix blank was added 300 μl acetonitrile without internal standard.
The tubes were shaken on a whirlimixer and then centrifuged for 25 minutes at 16.000 g at 5° C. to precipitate proteins.
An aliquot (200 μl) of the supernatant was transferred to another 1.5 ml eppendorf tube and evaporated to dryness under a gentle stream of nitrogen at 40° C. Then the samples were reconstituted in […] (initial composition).
Incorporating the data from the rat plasma analyses, the pharmacokinetic parameters were calculated using WinNonLin Professional Edition version 2.0.

[2] = Stability in solution (water, 0.1M HCl, 0.1M NaOH, 60° C., HPLC); format: physicochemical
Experimental: In this example the stability of Compound 1 of the invention are compared to those of a close analogue of the prior art, i.e. 1,3-dihydro-1-[2-hydroxy-5-(trifluoromethyl)phenyl]-5-(trifluoromethyl)-2H-Benzimidazol-2-one (i.e. NS1619 described in WO 01/54771) herein designated the Reference Compound.
The stability is determined in neutral (H2O), in basic (0.1M NaOH) and in acidic solution (0.1M HCl).
50 ml of water was added to 27 mg of the reference compound. The compound was only partly dissolved. The suspension was stored at 60° C. and after 24 hours 25 ml of methanol was added in order to completely dissolve reference compound. The solution was stored for further 4 hours and then analysed by HPLC (t=28 hours).
50 ml of 0.1M hydrochloric acid was added to 27 mg of the reference compound. The compound was only partly dissolved. The suspension was stored at 60° C. and after 48 hours 25 ml of methanol was added in order to completely dissolve he reference compound. The solution was stored for further 4. hours and then arialysed by HPLC (t=52 hours).
50 ml of 0.1M sodium hydroxide was added to 24 mg of the reference compound. The compound was completely dissolved. The solution was stored at 60° C. and analysed by HPLC after 2 hours (t=2 hours).
(§1) 50 ml of water was added to 25 mg of Compound 1. The compound was only partly dissolved. The suspension was stored at 60° C., and after 48 hours, 25 ml of acetonitrile was added in order to completely dissolve Compound 1. The solution was stored for further 24 hours and then analysed by HPLC (t=72 hours).
as §1, with “of 0.1M hydrochloric acid” for “of water”, “to 27” for “to 25”, “was only-partly” for “was only partly”
50 ml of 0.1M sodium hydroxide was added to 26 mg of Compound 1. The compound was completely dissolved. The solution was stored at 60° C. and analysed by HPLC after 72 hours (t=72 hours).

[3] = molecular target: T1, large conductance calcium-activated potassium (BKCa) channels (Cavia porcellus, UniProt A0A286XP95); details: guinea pig airways, via activation of BKCa channels; cited from earlier work
T1 construct: sensory fibers innervating the guinea pig airways; host or cells: guinea pig airway sensory nerve fibers (native tissue)
T1 sequence (A0A286XP95 1-1133): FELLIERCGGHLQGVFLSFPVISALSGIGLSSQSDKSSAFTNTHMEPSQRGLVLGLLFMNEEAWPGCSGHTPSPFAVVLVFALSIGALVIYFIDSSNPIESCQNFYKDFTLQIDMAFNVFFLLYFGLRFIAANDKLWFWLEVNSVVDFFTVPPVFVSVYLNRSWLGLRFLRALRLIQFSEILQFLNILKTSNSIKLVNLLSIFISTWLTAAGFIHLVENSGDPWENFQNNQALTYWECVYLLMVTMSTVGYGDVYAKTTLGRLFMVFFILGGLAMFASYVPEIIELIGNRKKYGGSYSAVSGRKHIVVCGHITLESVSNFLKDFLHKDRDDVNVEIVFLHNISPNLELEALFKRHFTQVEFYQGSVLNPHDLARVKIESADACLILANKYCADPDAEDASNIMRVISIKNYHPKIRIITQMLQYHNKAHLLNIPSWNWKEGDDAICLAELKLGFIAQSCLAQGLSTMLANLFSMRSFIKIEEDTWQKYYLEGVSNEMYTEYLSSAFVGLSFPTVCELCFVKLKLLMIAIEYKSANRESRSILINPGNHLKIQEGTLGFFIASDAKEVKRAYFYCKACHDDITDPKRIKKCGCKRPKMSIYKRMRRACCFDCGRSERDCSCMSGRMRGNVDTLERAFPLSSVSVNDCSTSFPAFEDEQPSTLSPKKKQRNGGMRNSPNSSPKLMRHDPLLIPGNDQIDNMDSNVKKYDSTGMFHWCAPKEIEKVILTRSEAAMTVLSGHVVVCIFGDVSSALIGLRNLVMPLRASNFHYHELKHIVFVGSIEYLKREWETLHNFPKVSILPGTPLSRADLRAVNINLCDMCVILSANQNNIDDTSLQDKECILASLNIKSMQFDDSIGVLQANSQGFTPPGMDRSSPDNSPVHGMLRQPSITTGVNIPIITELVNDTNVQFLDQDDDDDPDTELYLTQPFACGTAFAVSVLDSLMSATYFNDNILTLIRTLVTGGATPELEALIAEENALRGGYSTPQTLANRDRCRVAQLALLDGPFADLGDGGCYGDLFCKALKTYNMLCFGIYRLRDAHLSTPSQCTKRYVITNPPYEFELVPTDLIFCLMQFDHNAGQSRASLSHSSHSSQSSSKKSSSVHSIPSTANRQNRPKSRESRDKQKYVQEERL

[4] = iv, i.v. 3 mg/kg, time-points 5 min–5 h, read-out: T1/2 (i.v.) (converted)
[5] = po, p.o. 30 mg/kg, i.v. 3 mg/kg
[6] = po, p.o. 30 mg/kg, time-points 3–24 h (Ref. Cpd.), 2–24 h (Cpd. 1), read-out: T1/2 (p.o.) (converted)

| SMILES | half-life [1, 4] | Cmax ([1]; po, p.o. 30 mg/kg) | Tmax ([1]; po, p.o. 30 mg/kg) | bioavailability [1, 5] | half-life [1, 6] | Vd [1] | Time after which Cmax after p.o. administration is reached ([1]; p.o.) | Area% (UV 225 nm) of the Test Substance ([2]; HCl (0.1M), 60° C., Initial) | Area% (UV 225 nm) of the Test Substance ([2]; NaOH (0.1M), 60° C., Initial) | Area% (UV 225 nm) of the Test Substance ([2]; Water, 60° C., Initial) | also measured |
| --- | --- | --- | --- | --- | --- | --- | --- | --- | --- | --- | --- |
| O=c1[nH]c2cc(Cl)ccc2n1-c1cc(Cl)ccc1O [Compound 1, 5-Chloro-1-(5-chloro-2-hydroxy-phenyl)-1,3-dihydro-benzimidazole-2-one] | 0.8 h | 4200 ng/mL | 0.5 h | 97% | 3.2 h | 1.9 L/kg | 30 min | 99.7% | 99.7% | 99.7% | Absorption compared to the reference compound ([1]; p.o.): faster absorption; Half-life after p.o. administration compared to the reference compound ([1]; p.o.): slightly longer; Area% (UV 225 nm) of the Test Substance ([2]; HCl (0.1M), 60° C., t = 72 hours): 99.6%; Area% (UV 225 nm) of the Test Substance ([2]; NaOH (0.1M), 60° C., t = 72 hours): 99.4%; Area% (UV 225 nm) of the Test Substance ([2]; Water, 60° C., t = 72 hours): 99.6% |
| O=c1[nH]c2cc(C(F)(F)F)ccc2n1-c1cc(C(F)(F)F)ccc1O [Reference Compound, 1,3-dihydro-1-[2-hydroxy-5-(trifluoromethyl)phenyl]-5-(trifluoromethyl)-2H-Benzimidazol-2-one] | 1.7 h | 10000 ng/mL | 3 h | 145% | 2.5 h | 1.1 L/kg | 180 min | 98.4% | 98.4% | 98.4% | Area% (UV 225 nm) of the Test Substance ([2]; HCl (0.1M), 60° C., t = 52 hours): 98.4%; Area% (UV 225 nm) of the Test Substance ([2]; NaOH (0.1M), 60° C., t = 2 hours): 0.0%; Area% (UV 225 nm) of the Test Substance ([2]; Water, 60° C., t = 28 hours): 96.7%; Stability in 0.1 M NaOH (in words) ([2]; dissolved in 0.1 M NaOH): degrades instantly; Stability in solution (in words) ([2]; neutral, acidic and basic solution, 60° C.): unstable in neutral to basic solutions; Effect on activity of myelinated and non-myelinated airway sensory fibers [3]: inhibits the activity |
